Experimental data taken from patent US6057366A (priority 1994, dated 2000).
“Also recorded” adds a separate entry of the source.

Key:
lactating mammary gland [1] = format: in vivo, mouse; conditions: for activity in inducing widespread lactating mammary gland necrosis: 50-100 mg/kg body weight
Source text: (§1) White lactating female Quackenbush mice of body weight 40-50 g were used. All animal experiments followed the code of practice for the care and use of animals for experimental purposes as outlined by the Australian National Health and Medical Research Council. For the toxicity testing of leaf and crude extracts, on the fourth day after parturition the litter of each mouse was reduced to eight pups and weights of dam and litter respectively recorded. The dam was then separated from the litter and fasted overnight. On the following day and for 24 hours thereafter, the dam was offered 20 g of powdered commercial rodent diet containing 5% of powdered freeze-dried avocado leaf. In the case of preliminary organic extracts of the leaf, equivalent quantities were added to 20 g of powdered rodent diet, mixed thoroughly and the solvent evaporated under reduced pressure. After 24 hours on the medicated diet, regular untreated cubed diet was provided and the litter restored to the dam. At later stages of the isolation and purification of the active principle, the compound was suspended in up to 1 ml of 1% Tween 80 or Intralipid and given as a single dose by gavage on days 4 to 5 of lactation without prior fasting of the dam and simultaneous temporary removal of her pups. The dam and her pups were weighed daily. […] From 3 to 7 days after exposure to the avocado supplemented diet, or gavage of the purified extracts as the case may be, the dam was euthanased with carbon dioxide and all mammary glands and heart removed and fixed in buffered neutral 10% formalin for pathological examination.
The R and S isomers of persin were tested for activity required to induce widespread lactating mammary gland necrosis at the dose rate of 50-100 mg/kg body weight.

[2] = tested on: human breast cancer cell lines (MCF7, ZR75, T47D); test: Neutral red dye uptake assay (in vitro cytotoxicity), human breast cancer cell lines; format: cell-based; conditions: 10 to 0.3125 μg/ml, 20 hours incubation, average of 2 experiments, actual concentration reaching the cells unknown
Source text: For purposes of using a rapid, simple and cheap method of pre-screening cytotoxicity, we chose the neutral red dye uptake procedure to test such activity in the given extract.
Human breast and ovarian cancer cell lines were maintained in RPMI 1640 culture medium supplemented with 10% fetal calf serum, 2 mm L-glutamine and penicillin, streptomycin and fungizone. Cells were passaged by trypsinization and plated in 96-well flat-bottomed tissue culture plates at 5×10^4 cells per well. Cells were preincubated for 6 hours at 37° C., 5% CO2 in a humidified atmosphere to allow cell attachment prior to addition of the extract.
Persin was dissolved in DMF (supplied by National Research Centre for Environmental Toxicology) to give a stock solution of 100 μg/ml. […] 10 μl of the solution was added to quadruplicate wells in doubling dilution from 10 μg/ml to 0.3125 μg/ml (final concentration). Control wells had tissue culture diluent added only. DMF controls had DMF added to a final concentration of 0.1%. The extract was incubated with the cells for 20 hours before being gently aspirated. Cells were washed twice with Hanks Balanced Salt Solution (HBSS) with centrifugation in special microtiter plate carriers between washes so as not to lose viable but dislodged cells.
Neutral red was prepared fresh before each experiment from a 1% stock solution. One hundred microtiters of working solution (67 μg/ml in HBSS) was added to all wells and incubation continued for a further 4 hours. Non-absorbed dye was removed by washing cells as described above.
Absorbed dye was extracted from cells by adding 100 μl of 50% ethanol in 1% acetic acid.
Plates were mixed thoroughly to allow full extraction of the dye and were then read in a Multiscan plate reader at 540 nm. Dose response curves were constructed by plotting the percentage of untreated/control well OD540 versus concentration of extract. Individual extract concentration points were tested in quadruplicate and the results presented are averaged from 2 separate experiments. […]

lactating mammary gland [3] = format: in vivo; conditions: even as high single dose 200 mg/kg, mouse
lactating mammary gland [4] = conditions: Craigmill et al. (1989), cited from earlier work
avocado lipoxygenase = conditions: declines during ripening of the fruit; cited from earlier work
[5] = tested on: heat and lactating mammary gland of the mouse; conditions: Sani et al., 1993 symposium; cited from earlier work
[6] = Pathological effects on the myocardium after oral dosing; format: in vivo, mouse; conditions: myocardium; mouse, oral; read-out: dose above which necrosis of myocardial fibres may occur
Source text: as §1

myocardium = test: as above; format: in vivo, mouse
Source text: as §1

[7] = tested on: human colon cancer cell line (LS174T); test: Neutral red dye uptake assay (in vitro cytotoxicity), human colon cancer cell line; format: cell-based; conditions: any dose tested (10 to 0.3125 μg/ml), 20 hours
[8] = tested on: Colletotrichum gloeosporioides; conditions: cited from earlier work
silkworm larvae = conditions: isolated from avocado leaves; Chang et al. 1975; cited from earlier work

For `CCCCC/C=C\C/C=C\CCCCCCCC(=O)CC(O)COC(C)=O` (racemic) [mixture of isomers in equal proportions], the “activity in inducing widespread lactating mammary gland necrosis” value (lactating mammary gland [1]; mouse) was “less active than the R isomer”.

For `CCCCCCCCCCCCCCCCCC(=O)C[C@@H](O)COC(C)=O` [RMC328, (R)-2-Hydroxy-4-oxohenicosan-1-yl Acetate], the “sensitivity of human breast cancer cell lines relative to other cell lines (neutral red uptake)” value [2] was “the three human breast cancer cell lines showing the greatest sensitivity to the compounds”.

With `CCCCC/C=C\C/C=C\CCCCCCCC(=O)C[C@H](O)COC(C)=O` [S isomer, (2S)-2-hydroxy-4-oxo-henicosa-12Z,15Z-dien-1-yl acetate] the “activity in inducing widespread lactating mammary gland necrosis (high single dose)” value (lactating mammary gland [3]) was “inactive”.

In the case of `COc1cc2c(c(OC)c1OC)-c1ccc(OC)c(=O)cc1[C@@H](NC(C)=O)CC2` [colchicine], the “mechanism: microtubule inhibition” value (lactating mammary gland [4]) is listed as “microtubule inhibitors” and the “effect on milk ejection from secretory acinar cells” value (lactating mammary gland [4]; locally applied to the acinar cells) is listed as “prevent ejection of milk from the cells into the acinar lumen”.

In the case of `Oc1cc(O)c2c(c1)O[C@H](c1ccc(O)c(O)c1)[C@H](O)C2` [epicatechin], the “inhibition of avocado lipoxygenase” value (avocado lipoxygenase) is given as “inhibitor of the enzyme”.

In the case of `CCCCC/C=C\C/C=C\CCCCCCCC(=O)C[C@@H](O)COC(C)=O` [persin, (+)-(Z,Z)-1-acetyloxy-2-hydroxy-12,15-heneicosadien-4-one], the “sensitivity of human breast cancer cell lines relative to other cell lines (neutral red uptake)” value [2] is given as “Three human breast cancer cell lines showed greater sensitivity to the extract than other cell lines tested; also recorded: the three human breast cancer cell lines showing the greatest sensitivity to the compounds”, the “sensitivity of human breast cancer cell lines relative to other cell lines (neutral red uptake)” value ([2]; listed as extract) is given as “the human breast cancer cell lines were more sensitive to the extract than the other cell lines” and the “toxicity for heart and lactating mammary gland” value [5] is given as “responsible for demonstrated toxicity for the heat and lactating mammary gland of the mouse”. For the same compound, the NOAEL [6] was over 100 mg/kg, the “myocardium histology (FIG. 9C)” value (myocardium; 100 mg/kg orally, seven days previously) was “marked atrophy of muscle fibres (M) interstitial haemorrhage (H) and early scar tissue formation (S)” and the myocardial fibrosis (myocardium; doses above 100 mg/kg, animals surviving for seven days) was “areas of myocardial fibrosis can be observed in animals surviving for seven days”. The “hydrothorax / pulmonary oedema” value (myocardium; doses above 100 mg/kg, more severely affected animals) was “Hydrothoraz and/or pulmonary oedema may be present in more severly affected animals”, the “damage to heart muscle” value (myocardium; present studies) was “causes damage both to the lactating mammary gland and the heart muscle” and the “effect on human colon cancer cell line (neutral red uptake)” value [7] was “not affected by the extract at any dose tested”. The antifungal activity ([8]; isolated from avocado fruit peel or whole fruits, refs (ii) to (xiii)) was “exhibits antifungal activity in relation to the fungus Colletotrichum gloeosporioides”, the “loss of activity on double bond oxidation” value ([8]; natural compound, reference (v)) was “loses activity due to double bond oxidation” and the “activity in inducing widespread lactating mammary gland necrosis” value (lactating mammary gland [1]; mouse) was “active”. For the same compound, the “mammary epithelium histology (FIG. 9A)” value (lactating mammary gland [1]; 72 hours after single oral dose of 60 mg/kg on 4th day of lactation) was “extensive coagulative necrosis of the secretory tissues”, the “single oral dose required to induce widespread, non-fatal injury to the lactating mammary gland” value (lactating mammary gland [1]; mouse, single oral dose) was 60 to 100 mg/kg and the “character of the mammary gland injury” value (lactating mammary gland [1]; mouse, single oral dose, 60 to 100 mg/kg) was “interstitial oedema, congestion and haemorrhage and coagulative necrosis with desquamation of the acinar epithelial cells thereby preventing lactation”. The “inhibition of milk secretion” value (lactating mammary gland [1]; oral dosing) was “inhibition of milk secretion through such a necrogenic action on the secretory epithelium”, the “damage to lactating mammary gland” value (lactating mammary gland [1]; present studies) was “causes damage both to the lactating mammary gland and the heart muscle” and the “growth of silkworm larvae” value (silkworm larvae) was “inhibited the growth of silkworm larvae”.
